Patent publication US11641858B2, “Agricultural chemicals” (Redag Crop Protection Ltd, priority 2016, dated 2023)
Each block holds one molecule with its values, some of them ahead of it.

Tests used:
Phytophthora cinnamomi = test: Amended agar assay (potato dextrose agar), reduction in colony growth; assay type: cell-based; conditions: for inhibition of growth at 20 ppm / control over the fungal pathogens tested (in words): primary screen at 20 ppm; for inhibition of growth at 20 ppm: read-out: % control at 20 ppm; for EC50: descending test concentrations, 5-fold dilutions typically down to 0.032 ppm, read-out: Phytophthora cinnamomi (EC50)
Procedure: (§1) Testing was carried out on potato dextrose agar (PDA) amended with each compound at test concentrations of 20, 4 and 0.8, 0.16 and 0.032 ppm. Amended agar at each test concentration was poured into three replicate 9 cm petri dishes. Each replicate dish was inoculated in the centre with a 5 mm agar plug taken from the leading edge of a culture aged between 2 and 7 days old; the age of the culture was dependant on the growth rate of the pathogen being tested. The test pathogens were Pythium ultimum and Phytophthora cinnamomi. Plates were incubated at 18° C. and the diameter of each colony measured before growth on the fastest growing plate reached the plate edge. This varied between 2 and 7 days depending on the growth rate of test pathogens. The % reduction in colony growth compared to the control was calculated for each test concentration and pathogen combination.
(§2) The results are shown in Table 1 in which * represents an average control of up to 50% at said dosage; ** represents an average control of 50% or greater but less than 80% at said dosage; and *** represents an average control of 80% or greater at said dosage.
(§3) A primary screen was also conducted for a number of other compounds of the invention. The screen was conducted at 20 ppm and the results are provided in Table 2, in which D represents no control detected at this concentration; C represents up to 50% control; B from 50 to 99% control; and A represents a control of greater than 99%.
(§4) Alternatively, or in addition, the same assay was conducted at descending test concentrations with 5-fold dilutions typically down to 0.032 ppm, and an EC50 (the concentration at which 50% control would be achieved) was determined. The results are provided in Table 1 in which G represents an EC50 above 20 ppm, F represents an EC50 of 2-20 ppm and E represents and EC50 less than 2 ppm.

Pythium ultimum = test: as above; assay type: cell-based; conditions: for inhibition of growth at 20 ppm / EC50: Globisporangium ultimum; for inhibition of growth at 20 ppm / control over the fungal pathogens tested (in words): primary screen at 20 ppm; for inhibition of growth at 20 ppm: read-out: % control at 20 ppm; for EC50: descending test concentrations, 5-fold dilutions typically down to 0.032 ppm, read-out: Pythium ultimum (EC50)
Procedure: as §1, §2, §3, §4

[1] = Pythium ultimum, dose 0.032 ppm in amended agar
[2] = Pythium ultimum, dose 0.16 ppm in amended agar
[3] = Pythium ultimum, dose 0.8 ppm in amended agar
[4] = Pythium ultimum, dose 4 ppm in amended agar
[5] = Pythium ultimum, dose 20 ppm in amended agar

SMILES: Cn1nnnc1C(=NOCc1cccc(NC(=O)C(F)(F)Oc2ccccc2)n1)c1ccccc1 [A, reference compound]
average % control at given dosage (Phytophthora cinnamomi; dose 0.032 ppm in amended agar): *** (an average control of 80% or greater at said dosage) | average % control at given dosage (Phytophthora cinnamomi; dose 0.16 ppm in amended agar): *** (an average control of 80% or greater at said dosage) | average % control at given dosage (Phytophthora cinnamomi; dose 0.8 ppm in amended agar): *** (an average control of 80% or greater at said dosage) | average % control at given dosage (Phytophthora cinnamomi; dose 4 ppm in amended agar): *** (an average control of 80% or greater at said dosage) | average % control at given dosage (Phytophthora cinnamomi; dose 20 ppm in amended agar): *** (an average control of 80% or greater at said dosage) | inhibition of growth at 20 ppm (Phytophthora cinnamomi): > 99% | inhibition of growth at 20 ppm (Pythium ultimum; Pythium ultimum): > 99% | average % control at given dosage (Pythium ultimum; [1]): *** (an average control of 80% or greater at said dosage) | average % control at given dosage (Pythium ultimum; [2]): *** (an average control of 80% or greater at said dosage) | average % control at given dosage (Pythium ultimum; [3]): *** (an average control of 80% or greater at said dosage) | average % control at given dosage (Pythium ultimum; [4]): *** (an average control of 80% or greater at said dosage) | average % control at given dosage (Pythium ultimum; [5]): *** (an average control of 80% or greater at said dosage)

SMILES: Cn1nnnc1-n1c(OCc2cccc(NC(=O)Cc3ccccc3)n2)nc2ccccc21 [Example 29]
EC50 (Phytophthora cinnamomi): < 2 µg/mL | EC50 (Pythium ultimum): < 2 µg/mL

SMILES: CC(=O)Nc1cccc(COc2nc3ccccc3n2-c2nnnn2C)n1 [Example 10, N-(6-(((1-(1-Methyl-1H-tetrazol-5-yl)-1H-benzo[d]imidazol-2-yl)oxy)methyl)pyridin-2-yl)acetamide]
inhibition of growth at 20 ppm (Phytophthora cinnamomi): 50 to 99% | inhibition of growth at 20 ppm (Pythium ultimum; Pythium ultimum): 45 to 55%

SMILES: CCCCC(=O)Nc1cccc(COc2nc3ccccc3n2-c2nnnn2C)n1 [Example 31]
EC50 (Phytophthora cinnamomi): < 2 µg/mL | EC50 (Pythium ultimum): < 2 µg/mL

SMILES: CCOC(=O)Nc1cccc(COc2nc3ccccc3n2-c2nnnn2C)n1 [Example 11, Ethyl (6-(((1-(1-methyl-1H-tetrazol-5-yl)-1H-benzo[d]imidazol-2-yl)oxy)methyl)pyridin-2-yl)carbamate]
EC50 (Phytophthora cinnamomi): < 2 µg/mL | control over the fungal pathogens tested (in words) (Phytophthora cinnamomi): excellent control | inhibition of growth at 20 ppm (Phytophthora cinnamomi): 50 to 99% | inhibition of growth at 20 ppm (Pythium ultimum; Pythium ultimum): > 99% | EC50 (Pythium ultimum): < 2 µg/mL | control over the fungal pathogens tested (in words) (Pythium ultimum; Pythium ultimum): excellent control

SMILES: Cn1nnnc1N(C(=O)OCc1cccc(NC(=O)C(F)(F)Oc2ccccc2)n1)c1ccccc1 [B, reference compound]
average % control at given dosage (Phytophthora cinnamomi; dose 0.032 ppm in amended agar): * (an average control of up to 50% at said dosage) | average % control at given dosage (Phytophthora cinnamomi; dose 0.16 ppm in amended agar): ** (an average control of 50% or greater but less than 80% at said dosage) | average % control at given dosage (Phytophthora cinnamomi; dose 0.8 ppm in amended agar): ** (an average control of 50% or greater but less than 80% at said dosage) | average % control at given dosage (Phytophthora cinnamomi; dose 4 ppm in amended agar): ** (an average control of 50% or greater but less than 80% at said dosage) | average % control at given dosage (Phytophthora cinnamomi; dose 20 ppm in amended agar): ** (an average control of 50% or greater but less than 80% at said dosage) | average % control at given dosage (Pythium ultimum; [1]): * (an average control of up to 50% at said dosage) | average % control at given dosage (Pythium ultimum; [2]): ** (an average control of 50% or greater but less than 80% at said dosage) | average % control at given dosage (Pythium ultimum; [3]): ** (an average control of 50% or greater but less than 80% at said dosage) | average % control at given dosage (Pythium ultimum; [4]): *** (an average control of 80% or greater at said dosage) | average % control at given dosage (Pythium ultimum; [5]): *** (an average control of 80% or greater at said dosage)

SMILES: O=C(Nc1cccc(COc2nc3ccccc3n2-c2ncncc2Cl)n1)C(F)(F)Oc1ccccc1 [Example 64]
EC50 (Phytophthora cinnamomi): < 2 µg/mL | inhibition of growth at 20 ppm (Pythium ultimum; Pythium ultimum): > 99%

SMILES: Cn1nnnc1-n1c(OCc2cccc(NC(=O)CC3CCCCC3)n2)nc2ccccc21 [Example 46]
EC50 (Phytophthora cinnamomi): < 2 µg/mL | EC50 (Pythium ultimum): < 2 µg/mL

SMILES: Cn1nnnc1-n1c(OCc2cccc(NC(=O)CCC3CCCC3)n2)nc2ccccc21 [Example 26]
EC50 (Phytophthora cinnamomi): < 2 µg/mL | EC50 (Pythium ultimum): < 2 µg/mL

SMILES: Cc1nccnc1-n1c(OCc2cccc(NC(=O)OC(C)(C)C)n2)nc2ccccc21 [Example 59]
EC50 (Phytophthora cinnamomi): > 20 µg/mL | EC50 (Pythium ultimum): > 20 µg/mL

SMILES: Cn1nnnc1-n1c(OCc2cccc(NC(=O)CC(C)(C)C)n2)nc2ccccc21 [Example 44]
EC50 (Phytophthora cinnamomi): < 2 µg/mL | EC50 (Pythium ultimum): < 2 µg/mL

Second part, led by results:

EC50 (Phytophthora cinnamomi): < 2 µg/mL | EC50 (Pythium ultimum): < 2 µg/mL
SMILES: Cn1nnnc1-n1c(OCc2cccc(NC(=O)COc3ccccc3)n2)nc2ccccc21 [Example 25]

EC50 (Phytophthora cinnamomi): < 2 µg/mL | EC50 (Pythium ultimum): < 2 µg/mL
SMILES: Cn1nnnc1-n1c(OCc2cccc(NC(=O)OC(C)(C)C)n2)nc2ccccc21 [Example 2]
control over the fungal pathogens tested (in words) (Phytophthora cinnamomi): excellent control | inhibition of growth at 20 ppm (Phytophthora cinnamomi): > 99% | inhibition of growth at 20 ppm (Pythium ultimum; Pythium ultimum): > 99% | control over the fungal pathogens tested (in words) (Pythium ultimum; Pythium ultimum): excellent control

EC50 (Phytophthora cinnamomi): < 2 µg/mL | EC50 (Pythium ultimum): < 2 µg/mL
SMILES: Cn1nnnc1-n1c(OCc2cccc(NC(=O)CCC3CCCCC3)n2)nc2ccccc21 [Example 47]

EC50 (Phytophthora cinnamomi): < 2 µg/mL | EC50 (Pythium ultimum): < 2 µg/mL
SMILES: CCC(CC)C(=O)Nc1cccc(COc2nc3ccccc3n2-c2nnnn2C)n1 [Example 36]

EC50 (Phytophthora cinnamomi): < 2 µg/mL | EC50 (Pythium ultimum): < 2 µg/mL
SMILES: Cn1nnnc1-n1c(OCc2cccc(NC(=O)Cc3ccccn3)n2)nc2ccccc21 [Example 38]

EC50 (Phytophthora cinnamomi): < 2 µg/mL | EC50 (Pythium ultimum): < 2 µg/mL
SMILES: CC(C)OC(=O)Nc1cccc(COc2nc3ccccc3n2-c2nnnn2C)n1 [Example 17]

EC50 (Phytophthora cinnamomi): 2 to 20 µg/mL | EC50 (Pythium ultimum): 2 to 20 µg/mL
SMILES: O=C(Nc1cccc(COc2nc3ccccc3n2-c2ncccc2Cl)n1)C(F)(F)Oc1ccccc1 [Example 63]

EC50 (Phytophthora cinnamomi): < 2 µg/mL | EC50 (Pythium ultimum): < 2 µg/mL
SMILES: COc1ccc(C(=O)Nc2cccc(COc3nc4ccccc4n3-c3nnnn3C)n2)cc1 [Example 34]

EC50 (Phytophthora cinnamomi): < 2 µg/mL | EC50 (Pythium ultimum): < 2 µg/mL
SMILES: C=CCOC(=O)Nc1cccc(COc2nc3ccccc3n2-c2nnnn2C)n1 [Example 19]

EC50 (Phytophthora cinnamomi): < 2 µg/mL | EC50 (Pythium ultimum): < 2 µg/mL
SMILES: Cn1nnnc1-n1c(OCc2cccc(NC(=O)C(F)(F)Oc3ccccc3)n2)nc2ccccc21 [Example 1, 2,2-Difluoro-N-(6-(((1-(1-methyl-1H-tetrazol-5-yl)-1H-benzo[d]imidazol-2-yl)oxy)methyl)pyridin-2-yl)-2-phenoxyacetamide]
control over the tested oomycete fungal plant pathogens (in words) (Phytophthora cinnamomi; Table 1 doses 0.032-20 ppm, even at low concentrations): excellent control | average % control at given dosage (Phytophthora cinnamomi; dose 0.032 ppm in amended agar): *** (an average control of 80% or greater at said dosage) | average % control at given dosage (Phytophthora cinnamomi; dose 0.16 ppm in amended agar): *** (an average control of 80% or greater at said dosage) | average % control at given dosage (Phytophthora cinnamomi; dose 0.8 ppm in amended agar): *** (an average control of 80% or greater at said dosage) | average % control at given dosage (Phytophthora cinnamomi; dose 4 ppm in amended agar): *** (an average control of 80% or greater at said dosage) | average % control at given dosage (Phytophthora cinnamomi; dose 20 ppm in amended agar): *** (an average control of 80% or greater at said dosage) | control over the fungal pathogens tested (in words) (Phytophthora cinnamomi): excellent control | inhibition of growth at 20 ppm (Phytophthora cinnamomi): > 99% | inhibition of growth at 20 ppm (Pythium ultimum; Pythium ultimum): > 99% | control over the tested oomycete fungal plant pathogens (in words) (Pythium ultimum; Pythium ultimum, Table 1 doses 0.032-20 ppm, even at low concentrations): excellent control | average % control at given dosage (Pythium ultimum; [1]): *** (an average control of 80% or greater at said dosage) | average % control at given dosage (Pythium ultimum; [2]): *** (an average control of 80% or greater at said dosage) | average % control at given dosage (Pythium ultimum; [3]): *** (an average control of 80% or greater at said dosage) | average % control at given dosage (Pythium ultimum; [4]): *** (an average control of 80% or greater at said dosage) | average % control at given dosage (Pythium ultimum; [5]): *** (an average control of 80% or greater at said dosage) | control over the fungal pathogens tested (in words) (Pythium ultimum; Pythium ultimum): excellent control

EC50 (Phytophthora cinnamomi): < 2 µg/mL | EC50 (Pythium ultimum): < 2 µg/mL
SMILES: Cn1ccnc1-n1c(OCc2cccc(NC(=O)C(F)(F)Oc3ccccc3)n2)nc2ccccc21 [Example 54]

EC50 (Phytophthora cinnamomi): < 2 µg/mL | EC50 (Pythium ultimum): < 2 µg/mL
SMILES: Cn1nnnc1-n1c(OCc2cccc(NC(=O)C3CC3)n2)nc2ccccc21 [Example 32]

EC50 (Phytophthora cinnamomi): < 2 µg/mL | EC50 (Pythium ultimum): < 2 µg/mL
SMILES: Cn1nnnc1-n1c(OCc2cccc(NC(=O)C(F)(F)Oc3ccccc3)n2)nc2cc(C#N)ccc21 [Example 61]

EC50 (Phytophthora cinnamomi): < 2 µg/mL | EC50 (Pythium ultimum): < 2 µg/mL
SMILES: Cc1cccnc1-n1c(OCc2cccc(NC(=O)C(F)(F)Oc3ccccc3)n2)nc2ccccc21 [Example 3]
inhibition of growth at 20 ppm (Phytophthora cinnamomi): 50 to 99% | inhibition of growth at 20 ppm (Pythium ultimum; Pythium ultimum): 50 to 99%
